Assay results from patent US20100152434A1, “Protein Kinase-binding Nucleosides and Associated Methods” (priority 2007, published 2010).

Key:
Experiment in all cases: Ambit kinase phage display ATP-binding-site ligand binding assay
RPSGKA1 = RPSGKA1 (Homo sapiens, UniProt Q15418); conditions: read-out: % Inhibition of binding to ATP-binding-site ligand
Source text: (§1) In this assay, protein kinases are cloned into T7 bacteriophage which express the kinase fusion proteins on the phage capsid. T7 kinase-tagged phage are then screened for binding to ATP-binding-site ligands that have been immobilized on a solid support. Phage are screened for binding to the anchored ligands both in the presence of test compound and in its absence (control). Elution of the bound phage by free ligand (ATP-binding site ligand that is not immobilized on a solid support) followed by determination of the phage titre provides a reliable measure of the ability of test compounds to block binding of target kinases to resin-bound ATP-binding-site ligands.
(§2) T7 kinase-tagged phage strains were grown in parallel in microtiter plates in a proprietary bacterial host derived from E. Coli strain BL21. E. Coli were grown to a log phase, infected with T7 kinase-tagged phage, and incubated while shaking at 32° C. until bacterial lysis (approx. 90 min). Lysates were centrifuged (6,000 g) and filtered (0.2 μm). Small molecule ATP-binding-site-specific ligands were anchored to solid supports via a two step process beginning with biotin conjugation followed by treatment of the biotin/small molecule conjugate with streptavidin-coated magnetic beads. […] The phage titre of the eluates was measured by quantitative PCR or by plaque assays. […]

MAP4K5 = MAP4K5 (Homo sapiens, UniProt Q9Y4K4); conditions: read-out: percent inhibition of binding
Source text: (§3) This assay is based on ligand-affinity/protein kinase phage display and was employed essentially as described by Fabian et. al [Nature Biotech. […] In this assay, protein kinases are cloned into T7 bacteriophage which express the kinase fusion proteins on the phage capsid. T7 kinase-tagged phage are then screened for binding to ATP-binding-site ligands that have been immobilized on a solid support. Phage are screened for binding to the anchored ligands both in the presence of test compound and in its absence (control). Elution of the bound phage by free ligand (ATP-binding site ligand that is not immobilized on a solid support) followed by determination of the phage titre provides a reliable measure of the ability of test compounds to block binding of target kinases to resin-bound ATP-binding-site ligands.
(§4) T7 kinase-tagged phage strains were grown in parallel in microtiter plates in a proprietary bacterial host derived from E. Coli strain BL21. E. Coli were grown to a log phase, infected with T7 kinase-tagged phage, and incubated while shaking at 32° C. until bacterial lysis (approx. 90 min). Lysates were centrifuged (6,000 g) and filtered (0.2 μm). […] The phage titre of the eluates was measured by quantitative PCR or by plaque assays. […]

MARK3 = MARK3 (Homo sapiens, UniProt P27448); conditions: read-out: % Inhibition of binding to ATP-binding-site ligand
Source text: as §1, §2

EPHA5 = EPHA5 (Homo sapiens, UniProt P54756); conditions: read-out: percent inhibition of binding
Source text: as §1, §2

RPS6KA6(kin.Dom.2) = RPS6KA6(kin.Dom.2) (Homo sapiens, UniProt Q9UK32); conditions: read-out: percent inhibition of binding
Source text: as §3, §4

SNF1LK = SNF1LK (Homo sapiens, UniProt P57059); conditions: read-out: percent inhibition of binding
Source text: as §1, §2

CLK4 = CLK4 (Homo sapiens, UniProt Q9HAZ1); conditions: read-out: percent inhibition of binding
Source text: as §1, §2

TXK = TXK (Homo sapiens, UniProt P42681); conditions: read-out: percent inhibition of binding
Source text: as §3, §4

DAPK1 = DAPK1 (Homo sapiens, UniProt P53355); conditions: read-out: percent inhibition of binding
Source text: as §1, §2

CD2 L2 = CD2 L2 (Homo sapiens, UniProt Q9UQ88); conditions: read-out: percent inhibition of binding
Source text: as §1, §2

MEK6 = MEK6 (Homo sapiens, UniProt P52564); conditions: read-out: percent inhibition of binding
Source text: as §3, §4

p38-beta = p38-beta (Homo sapiens, UniProt Q15759); conditions: read-out: percent inhibition of binding
Source text: as §1, §2

MST1 = MST1 (Homo sapiens, UniProt Q13043); conditions: read-out: percent inhibition of binding
Source text: as §1, §2

BMPR2 = BMPR2 (Homo sapiens, UniProt Q13873); conditions: read-out: percent inhibition of binding
Source text: as §3, §4

RPS6KA2 = RPS6KA2 (Homo sapiens, UniProt Q15349); conditions: read-out: percent inhibition of binding
Source text: as §3, §4

EGFR(L747-T751del,Sins) = EGFR(L747-T751del,Sins) (Homo sapiens, UniProt P00533, DEL747-750/T751S); conditions: read-out: percent inhibition of binding
Source text: as §3, §4

CDK5 = CDK5 (Homo sapiens, UniProt Q00535); conditions: read-out: percent inhibition of binding
Source text: as §1, §2

TYK2 = TYK2 (Homo sapiens, UniProt P29597); conditions: read-out: % Inhibition of binding to ATP-binding-site ligand
Source text: as §3, §4

CIT = CIT (Homo sapiens, UniProt O14578); conditions: read-out: percent inhibition of binding
Source text: as §1, §2

MET = MET (Homo sapiens, UniProt P08581); conditions: read-out: percent inhibition of binding
Source text: as §3, §4

PIK3CG = PIK3CG (Homo sapiens, UniProt P48736); conditions: read-out: percent inhibition of binding
Source text: as §3, §4

CLK3 = CLK3 (Homo sapiens, UniProt P49761); conditions: read-out: percent inhibition of binding
Source text: as §1, §2

HCK = HCK (Homo sapiens, UniProt P08631); conditions: read-out: percent inhibition of binding
Sequence of HCK (P08631 whole entry, species assumed): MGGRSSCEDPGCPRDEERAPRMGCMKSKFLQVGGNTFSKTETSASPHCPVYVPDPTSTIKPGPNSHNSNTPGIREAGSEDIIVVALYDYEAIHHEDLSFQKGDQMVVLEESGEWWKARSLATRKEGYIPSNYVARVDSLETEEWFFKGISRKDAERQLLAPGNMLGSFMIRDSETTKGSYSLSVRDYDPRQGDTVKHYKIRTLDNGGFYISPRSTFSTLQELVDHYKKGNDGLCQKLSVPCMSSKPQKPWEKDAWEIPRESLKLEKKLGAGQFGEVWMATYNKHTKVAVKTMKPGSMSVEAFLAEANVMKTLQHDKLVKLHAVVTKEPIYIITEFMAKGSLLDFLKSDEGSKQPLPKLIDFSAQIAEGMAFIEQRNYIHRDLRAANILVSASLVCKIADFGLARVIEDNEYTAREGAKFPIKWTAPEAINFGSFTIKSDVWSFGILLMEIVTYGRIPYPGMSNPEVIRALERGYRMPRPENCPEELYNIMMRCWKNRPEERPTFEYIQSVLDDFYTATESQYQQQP
Source text: as §3, §4

Sequence of CDK5 (Q00535 whole entry): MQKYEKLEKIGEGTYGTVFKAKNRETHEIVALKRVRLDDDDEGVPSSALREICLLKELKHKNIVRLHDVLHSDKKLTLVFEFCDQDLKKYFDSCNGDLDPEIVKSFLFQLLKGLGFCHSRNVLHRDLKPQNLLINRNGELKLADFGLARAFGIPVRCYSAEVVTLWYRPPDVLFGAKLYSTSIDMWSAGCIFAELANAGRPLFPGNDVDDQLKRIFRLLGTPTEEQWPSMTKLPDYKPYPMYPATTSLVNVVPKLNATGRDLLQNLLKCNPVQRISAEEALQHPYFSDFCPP
Sequence of TYK2 (P29597 whole entry): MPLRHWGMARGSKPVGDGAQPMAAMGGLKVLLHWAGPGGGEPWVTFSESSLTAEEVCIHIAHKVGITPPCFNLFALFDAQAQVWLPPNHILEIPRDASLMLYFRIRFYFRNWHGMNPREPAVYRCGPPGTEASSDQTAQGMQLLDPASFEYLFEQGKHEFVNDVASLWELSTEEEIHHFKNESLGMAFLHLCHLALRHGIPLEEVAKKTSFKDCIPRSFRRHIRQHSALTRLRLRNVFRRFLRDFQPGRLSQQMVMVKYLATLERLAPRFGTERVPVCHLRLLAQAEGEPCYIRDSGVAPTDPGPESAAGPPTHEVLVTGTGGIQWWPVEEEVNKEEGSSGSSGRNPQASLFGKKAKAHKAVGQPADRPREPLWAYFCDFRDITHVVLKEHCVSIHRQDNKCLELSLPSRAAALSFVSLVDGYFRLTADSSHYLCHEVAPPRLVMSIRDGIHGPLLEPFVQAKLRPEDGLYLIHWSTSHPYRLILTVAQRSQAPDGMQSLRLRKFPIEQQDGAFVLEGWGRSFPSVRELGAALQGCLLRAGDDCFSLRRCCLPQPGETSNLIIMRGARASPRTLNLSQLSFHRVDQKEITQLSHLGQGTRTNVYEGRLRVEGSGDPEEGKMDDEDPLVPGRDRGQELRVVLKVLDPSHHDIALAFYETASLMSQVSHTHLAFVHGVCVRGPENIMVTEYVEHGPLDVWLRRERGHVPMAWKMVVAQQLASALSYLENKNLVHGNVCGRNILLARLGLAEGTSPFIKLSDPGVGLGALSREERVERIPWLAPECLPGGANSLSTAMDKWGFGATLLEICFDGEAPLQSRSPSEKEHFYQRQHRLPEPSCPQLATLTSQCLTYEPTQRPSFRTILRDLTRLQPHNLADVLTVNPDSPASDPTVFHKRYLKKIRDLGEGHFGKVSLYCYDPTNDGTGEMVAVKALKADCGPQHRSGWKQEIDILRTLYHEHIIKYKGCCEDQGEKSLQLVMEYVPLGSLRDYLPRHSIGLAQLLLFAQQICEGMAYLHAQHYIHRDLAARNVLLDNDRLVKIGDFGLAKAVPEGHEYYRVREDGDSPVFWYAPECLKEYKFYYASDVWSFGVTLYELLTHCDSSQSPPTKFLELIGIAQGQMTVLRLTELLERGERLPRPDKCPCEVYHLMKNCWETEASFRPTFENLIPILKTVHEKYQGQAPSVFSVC
Sequence of MEK6 (P52564 whole entry): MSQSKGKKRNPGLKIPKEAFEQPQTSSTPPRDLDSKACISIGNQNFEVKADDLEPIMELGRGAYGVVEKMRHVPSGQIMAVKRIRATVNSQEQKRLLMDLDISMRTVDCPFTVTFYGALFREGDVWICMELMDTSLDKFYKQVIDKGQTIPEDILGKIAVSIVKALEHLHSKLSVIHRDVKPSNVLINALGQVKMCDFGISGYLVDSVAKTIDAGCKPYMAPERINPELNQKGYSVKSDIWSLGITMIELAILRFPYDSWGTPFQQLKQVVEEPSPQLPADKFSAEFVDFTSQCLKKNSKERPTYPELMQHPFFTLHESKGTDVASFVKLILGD
Sequence of TXK (P42681 whole entry): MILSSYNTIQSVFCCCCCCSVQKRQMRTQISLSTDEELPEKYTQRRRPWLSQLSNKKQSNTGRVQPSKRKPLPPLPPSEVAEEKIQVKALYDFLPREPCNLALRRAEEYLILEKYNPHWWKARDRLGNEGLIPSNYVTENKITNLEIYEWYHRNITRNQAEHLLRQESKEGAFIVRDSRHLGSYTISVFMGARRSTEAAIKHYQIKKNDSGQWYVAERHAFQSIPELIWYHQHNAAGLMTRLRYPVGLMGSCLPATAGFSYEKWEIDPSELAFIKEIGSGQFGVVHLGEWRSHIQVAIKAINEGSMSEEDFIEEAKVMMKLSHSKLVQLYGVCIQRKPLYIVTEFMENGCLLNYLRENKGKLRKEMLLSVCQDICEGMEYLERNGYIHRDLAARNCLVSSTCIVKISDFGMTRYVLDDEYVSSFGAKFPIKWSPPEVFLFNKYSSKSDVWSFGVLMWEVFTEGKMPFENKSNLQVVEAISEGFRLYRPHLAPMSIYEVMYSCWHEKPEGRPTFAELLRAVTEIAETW
Sequence of CLK3 (P49761 whole entry): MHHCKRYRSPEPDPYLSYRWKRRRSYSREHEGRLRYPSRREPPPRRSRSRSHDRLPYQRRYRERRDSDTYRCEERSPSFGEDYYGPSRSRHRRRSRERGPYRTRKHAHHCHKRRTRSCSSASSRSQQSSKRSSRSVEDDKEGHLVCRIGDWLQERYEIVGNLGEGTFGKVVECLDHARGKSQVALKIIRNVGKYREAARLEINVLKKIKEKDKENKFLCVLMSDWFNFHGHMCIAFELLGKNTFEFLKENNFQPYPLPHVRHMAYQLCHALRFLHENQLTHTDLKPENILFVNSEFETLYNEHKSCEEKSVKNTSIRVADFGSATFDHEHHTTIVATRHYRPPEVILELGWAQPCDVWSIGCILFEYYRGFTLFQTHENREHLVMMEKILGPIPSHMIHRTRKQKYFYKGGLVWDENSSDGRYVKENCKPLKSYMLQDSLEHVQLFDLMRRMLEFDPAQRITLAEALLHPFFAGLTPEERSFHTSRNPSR
Sequence of EPHA5 (P54756 25-1037): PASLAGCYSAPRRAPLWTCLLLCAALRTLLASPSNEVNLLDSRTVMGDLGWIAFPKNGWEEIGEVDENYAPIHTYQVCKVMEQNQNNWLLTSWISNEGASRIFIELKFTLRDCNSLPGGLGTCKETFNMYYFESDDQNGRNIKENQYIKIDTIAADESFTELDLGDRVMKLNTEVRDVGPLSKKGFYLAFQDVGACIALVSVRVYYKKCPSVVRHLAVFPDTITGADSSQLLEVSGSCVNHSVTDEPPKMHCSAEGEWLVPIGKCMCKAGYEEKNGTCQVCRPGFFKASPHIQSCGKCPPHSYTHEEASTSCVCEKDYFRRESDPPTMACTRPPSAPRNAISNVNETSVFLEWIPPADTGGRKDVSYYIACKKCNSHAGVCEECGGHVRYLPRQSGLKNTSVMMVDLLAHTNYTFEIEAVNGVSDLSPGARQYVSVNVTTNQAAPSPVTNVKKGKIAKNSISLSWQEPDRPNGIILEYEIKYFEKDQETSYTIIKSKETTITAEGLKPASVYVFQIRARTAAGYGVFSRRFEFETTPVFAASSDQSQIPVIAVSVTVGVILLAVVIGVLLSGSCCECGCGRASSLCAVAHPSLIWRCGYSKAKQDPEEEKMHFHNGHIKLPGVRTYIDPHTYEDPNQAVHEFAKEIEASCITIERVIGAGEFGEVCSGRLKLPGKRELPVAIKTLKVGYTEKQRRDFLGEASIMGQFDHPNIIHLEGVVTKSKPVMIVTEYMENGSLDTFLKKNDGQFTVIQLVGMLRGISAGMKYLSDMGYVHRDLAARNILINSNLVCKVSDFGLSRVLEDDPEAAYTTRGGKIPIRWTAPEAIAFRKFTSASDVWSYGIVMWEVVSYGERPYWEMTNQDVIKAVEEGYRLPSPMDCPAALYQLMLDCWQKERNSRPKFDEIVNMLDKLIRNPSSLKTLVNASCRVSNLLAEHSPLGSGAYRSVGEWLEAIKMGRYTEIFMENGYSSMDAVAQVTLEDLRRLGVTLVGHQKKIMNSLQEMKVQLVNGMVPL
Sequence of EGFR(L747-T751del,Sins) (P00533 with tags, fused parts or gaps DEL747-750/T751S limits assumed): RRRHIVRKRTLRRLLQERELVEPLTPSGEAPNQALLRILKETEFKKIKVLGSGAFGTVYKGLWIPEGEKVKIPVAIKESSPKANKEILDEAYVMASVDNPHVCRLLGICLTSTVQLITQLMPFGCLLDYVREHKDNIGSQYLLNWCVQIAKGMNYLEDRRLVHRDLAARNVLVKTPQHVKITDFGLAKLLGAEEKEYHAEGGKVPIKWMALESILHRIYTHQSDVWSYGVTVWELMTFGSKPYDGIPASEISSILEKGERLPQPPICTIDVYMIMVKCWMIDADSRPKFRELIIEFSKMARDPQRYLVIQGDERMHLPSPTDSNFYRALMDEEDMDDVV
Sequence of RPS6KA6(kin.Dom.2) (Q9UK32 426-683 limits assumed): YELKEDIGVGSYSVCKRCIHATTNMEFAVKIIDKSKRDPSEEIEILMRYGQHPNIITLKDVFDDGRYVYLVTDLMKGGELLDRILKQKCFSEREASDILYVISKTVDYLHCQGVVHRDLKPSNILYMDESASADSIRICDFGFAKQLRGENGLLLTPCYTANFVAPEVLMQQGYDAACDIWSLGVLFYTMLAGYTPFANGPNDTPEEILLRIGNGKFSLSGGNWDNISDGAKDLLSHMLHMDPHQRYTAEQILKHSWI

Compound CCOC(=O)C[C@@H]1C(O[Si](C)(C)C(C)(C)C)[C@H](n2cnc3c(NC(=O)Nc4ccccc4)ncnc32)O[C@@H]1CNC(=O)NC (some centres unmarked) [Compound 10] has an inhibition at 10 µM (RPSGKA1) of 40%, an inhibition at 10 µM (MAP4K5) of 20 to 29% and an inhibition at 10 µM (MARK3) of 34%. It also gave an inhibition at 10 µM (EPHA5) of 20 to 29%, an inhibition at 10 µM (RPS6KA6(kin.Dom.2)) of 20 to 29% and an inhibition at 10 µM (SNF1LK) of 20 to 29%. For the same compound, the inhibition at 10 µM (CLK4) was 20 to 29%, the inhibition at 10 µM (TXK) was 20 to 29% and the inhibition at 10 µM (DAPK1) was 20 to 29%. The inhibition at 10 µM (CD2 L2) was 20 to 29%, the inhibition at 10 µM (MEK6) was 20 to 29% and the inhibition at 10 µM (p38-beta) was 20 to 29%. For the same compound, the inhibition at 10 µM (MST1) was 20 to 29%, the inhibition at 10 µM (BMPR2) was 20 to 29% and the inhibition at 10 µM (RPS6KA2) was 20 to 29%. It also gave an inhibition at 10 µM (EGFR(L747-T751del,Sins)) of 20 to 29%, an inhibition at 10 µM (CDK5) of 20 to 29% and an inhibition at 10 µM (TYK2) of 31%. The inhibition at 10 µM (CIT) was 20 to 29%, the inhibition at 10 µM (MET) was 20 to 29% and the inhibition at 10 µM (PIK3CG) was 20 to 29%. For the same compound, the inhibition at 10 µM (CLK3) was 20 to 29% and the inhibition at 10 µM (HCK) was 20 to 29%.
